In PMC12818446 (ACS chemical biology, 2025):
Converted amounts (≈) assume the structure as drawn. “And” between values parts separate entries of the source, which are not always exact repeats. Equal entries are not always repeated. Where two headings read alike, the source gives them in different places.

Experiments:
ecLeuRS [1] = molecular target: T1, ecLeuRS (Escherichia coli, UniProt P07813); conditions: cited from earlier work
M. tuberculosis H37Rv = experiment: MIC, microplate Alamar blue assay; format: cell-based; conditions: Mycobacterium tuberculosis
[2] = system: M. tuberculosis H37Rv_LuxABCDE; experiment: Post-antibiotic effect, autobioluminescent strain; format: cell-based, Mycobacterium tuberculosis
E. coli ATCC25922 [3] = experiment: MIC, visible growth in 96-well plates; format: cell-based, Escherichia coli
ecLeuRS [4] = molecular target: T1, ecLeuRS; experiment: SPR single-cycle kinetics, BAP-ecLeuRS in the presence of AMP; format: binding; conditions: for Kd/IC50: ratio of SPR Kd (AMP) and IC50 after 1 h preincubation; for kon: read-out: SPR kon
M. tuberculosis = conditions: cited from earlier work
E. coli ATCC25922 [5] = experiment: Checkerboard MIC assay and FIC index; format: cell-based, Escherichia coli; conditions: for MIC: Escherichia coli
ecLeuRS D342E [6] = molecular target: T2, ecLeuRS D342E (Escherichia coli, UniProt P07813, D342E); experiment: biochemical; format: binding
T2 sequence (P07813 whole entry D342E): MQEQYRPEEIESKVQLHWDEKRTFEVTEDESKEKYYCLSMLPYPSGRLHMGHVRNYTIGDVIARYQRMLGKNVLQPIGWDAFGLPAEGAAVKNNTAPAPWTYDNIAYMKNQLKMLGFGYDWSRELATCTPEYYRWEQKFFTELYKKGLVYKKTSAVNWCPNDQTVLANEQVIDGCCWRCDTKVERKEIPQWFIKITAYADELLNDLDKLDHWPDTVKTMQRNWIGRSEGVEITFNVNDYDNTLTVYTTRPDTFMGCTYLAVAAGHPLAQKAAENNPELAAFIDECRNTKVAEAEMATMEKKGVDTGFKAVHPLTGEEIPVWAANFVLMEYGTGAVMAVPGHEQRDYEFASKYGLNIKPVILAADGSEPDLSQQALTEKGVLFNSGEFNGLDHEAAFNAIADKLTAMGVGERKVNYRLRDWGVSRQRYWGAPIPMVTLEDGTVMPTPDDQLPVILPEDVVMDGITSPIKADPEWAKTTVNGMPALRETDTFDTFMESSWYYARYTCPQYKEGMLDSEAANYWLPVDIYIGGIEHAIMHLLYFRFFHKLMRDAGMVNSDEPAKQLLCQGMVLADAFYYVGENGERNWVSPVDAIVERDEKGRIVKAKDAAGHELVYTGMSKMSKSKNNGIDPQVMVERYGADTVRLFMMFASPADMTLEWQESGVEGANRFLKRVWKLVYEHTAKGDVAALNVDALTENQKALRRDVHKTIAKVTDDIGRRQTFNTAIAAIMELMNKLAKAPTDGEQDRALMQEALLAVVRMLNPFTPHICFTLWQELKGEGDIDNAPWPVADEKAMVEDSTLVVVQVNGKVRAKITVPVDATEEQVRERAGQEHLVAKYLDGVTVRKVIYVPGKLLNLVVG

ecLeuRS D342E [7] = molecular target: T2, ecLeuRS D342E; experiment: biochemical; format: biochemical
[8] = system: E. coli mutant strains (ecLeuRS D342E, G333D, D345N, V335D); experiment: microbe, parasite or virus in culture; format: cell-based, Escherichia coli
mtLeuRS [9] = molecular target: T3, mtLeuRS (Mycobacterium tuberculosis, UniProt P9WFV1); experiment: biochemical; conditions: IC50, 1 h preincubation, 1 h preincubation with enzyme and mttRNA^Leu
T3 sequence (P9WFV1 whole entry): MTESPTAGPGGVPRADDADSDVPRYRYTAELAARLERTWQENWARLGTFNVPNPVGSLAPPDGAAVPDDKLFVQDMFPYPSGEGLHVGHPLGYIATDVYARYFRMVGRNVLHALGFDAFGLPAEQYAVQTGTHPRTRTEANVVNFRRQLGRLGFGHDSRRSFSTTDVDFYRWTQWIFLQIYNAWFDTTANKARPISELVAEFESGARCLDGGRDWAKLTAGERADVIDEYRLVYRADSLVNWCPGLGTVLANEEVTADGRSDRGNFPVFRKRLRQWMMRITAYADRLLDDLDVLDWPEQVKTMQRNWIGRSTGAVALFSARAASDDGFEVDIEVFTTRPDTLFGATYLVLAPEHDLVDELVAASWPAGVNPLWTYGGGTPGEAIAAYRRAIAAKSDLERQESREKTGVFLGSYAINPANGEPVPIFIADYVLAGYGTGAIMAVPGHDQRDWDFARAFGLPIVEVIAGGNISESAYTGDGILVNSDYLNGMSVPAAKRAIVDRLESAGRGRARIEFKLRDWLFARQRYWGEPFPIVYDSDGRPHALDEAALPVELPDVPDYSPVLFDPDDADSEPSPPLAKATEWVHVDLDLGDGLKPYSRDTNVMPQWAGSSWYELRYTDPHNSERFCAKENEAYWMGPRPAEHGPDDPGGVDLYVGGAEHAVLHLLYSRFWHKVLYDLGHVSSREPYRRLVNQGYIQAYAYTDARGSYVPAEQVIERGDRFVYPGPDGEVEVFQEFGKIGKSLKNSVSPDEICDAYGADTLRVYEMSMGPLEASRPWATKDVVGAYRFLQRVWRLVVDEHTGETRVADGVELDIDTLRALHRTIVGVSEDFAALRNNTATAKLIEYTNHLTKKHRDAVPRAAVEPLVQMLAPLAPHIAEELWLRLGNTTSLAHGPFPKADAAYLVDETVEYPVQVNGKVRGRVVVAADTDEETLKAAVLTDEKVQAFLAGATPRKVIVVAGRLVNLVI

human cytoplasmic LeuRS = conditions: read-out: reported IC50; cited from earlier work
E. coli ATCC25922 [10] = experiment: Time-kill assay; format: cell-based, Escherichia coli; conditions: combination of ganfeborole and Nva, M9 medium
E. coli ΔtolC and ΔacrAB = format: cell-based, Escherichia coli
mtLeuRS [11] = molecular target: T3, mtLeuRS; format: binding
ecLeuRS [12] = molecular target: T1, ecLeuRS; experiment: LeuRS aminoacylation-activity assay; format: biochemical; conditions: IC50, 1 h preincubation, 1 h preincubation with enzyme and ectRNA^Leu
mtLeuRS [13] = molecular target: T3, mtLeuRS; conditions: mtLeuRS in the presence of AMP; cited from earlier work
[14] = system: human mitochondrial LeuRS; conditions: read-out: reported IC50; cited from earlier work
[15] = 1xMIC exposure for 2.5 h, 10,000-fold dilution
[16] = 10xMIC exposure for 2.5 h, 10,000-fold dilution
[17] = 30xMIC exposure for 2.5 h, 10,000-fold dilution
[18] = 50xMIC exposure for 2.5 h, 10,000-fold dilution

T1 sequence (P07813 whole entry): as the sequence (P07813 whole entry D342E) above, with E342D counted along it

## NCC1OB(O)c2c(OCCCO)cccc21 (centres unmarked) [AN3213]
ecLeuRS [1]; ecLeuRS and tRNA^Leu
  reported residence time: 23 h

## NNC(=O)c1ccncc1 [Isoniazid]
M. tuberculosis H37Rv
  MIC: 0.23 µM (≈ 0.0315 µg/mL)
[2]; 1x to 50xMIC
  PAE at any concentration: no detectable PAE
[2]; [15]
  PAE 1xMIC: 0 h
[2]; [16]
  PAE 10xMIC: 0 h
[2]; [17]
  PAE 30xMIC: 0 h
[2]; [18]
  PAE 50xMIC: 0 h

## NC[C@H]1OB(O)c2c(OCCCO)cccc21 [Epetraborole]
E. coli ATCC25922 [3]; Escherichia coli, ATCC25922
  MIC: 1.56 µM (≈ 0.37 µg/mL)
ecLeuRS [1]; ecLeuRS with tRNA^Leu
  residence time: 23 h
ecLeuRS [4]
  Kd: 1100 ± 71 nM
  kon: 62000 ± 33000 M⁻¹ s⁻¹
ecLeuRS [4]; ecLeuRS
  Kd/IC50: 367

## CO[C@H]1/C=C/O[C@@]2(C)Oc3c(C)c(O)c4c(O)c(c(/C=N/N5CCN(C)CC5)c(O)c4c3C2=O)NC(=O)/C(C)=C\C=C\[C@H](C)[C@H](O)[C@@H](C)[C@@H](O)[C@@H](C)[C@H](OC(C)=O)[C@@H]1C [Rifampicin]
M. tuberculosis H37Rv
  MIC: 0.04 µM (≈ 0.0329 µg/mL)
M. tuberculosis
  PAE: 68 to 77 h
[2]
  PAE 1xMIC: 22 ± 1 h
  PAE 10xMIC: 30 ± 2 h
  PAE 30xMIC: 36 ± 3 h
  PAE 50xMIC: 72 h and 72 ± 4 h

## CCC[C@H](N)C(=O)O [Nva, L-Norvaline]
E. coli ATCC25922 [5]; ATCC25922, read-out: MIC of Nva with 6.4 μM ganfeborole, E. coli ATCC25922, in the presence of 3.1 μM Leu
  MIC: 25 µM
E. coli ATCC25922 [5]; ATCC25922, read-out: MIC of Nva with 6.4 μM ganfeborole, E. coli ATCC25922, with 200 μM Leu
  MIC: 1600 µM
E. coli ATCC25922 [3]; Nva alone, E. coli
  effect on bacterial growth, no effect up to: > 200 µM

## NC[C@H]1OB(O)c2c(OCCO)ccc(Cl)c21 [Ganfeborole, (S)-3-(Aminomethyl)-4-chloro-7-(2-hydroxyethoxy)benzo[c][1,2]oxaborol-1(3H)-ol]
M. tuberculosis H37Rv
  MIC: 0.058 µM (≈ 0.0149 µg/mL)
ecLeuRS D342E [6]
  Kd: 1700 ± 197 nM
  Kd/IC50: 85
ecLeuRS D342E [6]; read-out: SPR koff
  koff: 0.07 ± 0.0071 s⁻¹
ecLeuRS D342E [6]; read-out: SPR kon
  kon: 42000 ± 1000 M⁻¹ s⁻¹
ecLeuRS D342E [6]; read-out: SPR tR (residence time)
  residence time: 0.24 ± 0.02 min
ecLeuRS D342E [7]
  fold increase in IC50, D342E mutant versus ecLeuRS: 10 fold
ecLeuRS D342E [7]; IC50, 2 min preincubation
  IC50: 278 ± 19 nM
ecLeuRS D342E [7]; IC50, 20 min preincubation
  IC50: 60 ± 4 nM
ecLeuRS D342E [7]; IC50, 1 h preincubation
  IC50: 20 ± 2 nM
[8]
  MIC: 1.56 µM (≈ 0.402 µg/mL)
[8]; Escherichia coli, read-out: MIC, four mutant strains together
  MIC: 1.56 to 6.25 µM (≈ 0.402 to 1.61 µg/mL)
E. coli ATCC25922 [5]; E. coli, 12.5 μM Nva
  fold decrease in the MIC of ganfeborole on addition of Nva: > 1000 fold
E. coli ATCC25922 [5]; ATCC25922, read-out: MIC of ganfeborole + 12.5 μM Nva, E. coli ATCC25922, M9 media, + 12.5 μM Nva
  MIC: 0.4 µM
E. coli ATCC25922 [5]; ATCC25922, read-out: MIC of ganfeborole + 100 μM Nva + 100 μM Leu, E. coli ATCC25922, M9 media, + 100 μM Nva + 100 μM Leu
  MIC: 1600 µM
E. coli ATCC25922 [5]; checkerboard of Nva and ganfeborole, E. coli ATCC25922
  FICI: < 0.5
[2]; [15]
  PAE 1xMIC: 0 h
[2]; [16]
  PAE 10xMIC: 32 ± 2 h
[2]; [17]
  PAE 30xMIC: 39 ± 2 h
[2]; [18]
  PAE 50xMIC: 77 ± 4 h
[2]; 50xMIC exposure for 2.5 h, 10,000-fold dilution, listed as ganfeborole
  PAE 50xMIC: 77 h
E. coli ATCC25922 [3]; E. coli wild-type, Table 4 (CAMH medium)
  MIC: >1000 µM
E. coli ATCC25922 [3]; Escherichia coli, ATCC25922
  MIC: > 1000 µM
E. coli ATCC25922 [3]; wild-type E. coli
  antibacterial activity towards E. coli, no activity up to: > 1 mM
mtLeuRS [9]
  IC50: 1 ± 0.1 nM
Human cytoplasmic LeuRS
  IC50: 132000 nM
E. coli ATCC25922 [10]
  time-kill result: cidality
E. coli ΔtolC and ΔacrAB
  MIC / antibacterial activity in efflux pump mutant strains: no antibacterial activity
  antibacterial activity, no activity up to: > 1 mM
mtLeuRS [11]; SPR with AMP
  fold more potent binding than compound 1: ~ 50 fold
mtLeuRS [11]; ratio of SPR Kd (AMP) and IC50 after 1 h preincubation
  Kd/IC50: 7
ecLeuRS [12]
  IC50: 2 ± 0.1 nM
ecLeuRS [4]
  Kd: 17 ± 1 nM
  kon: 9500 ± 500 M⁻¹ s⁻¹
ecLeuRS [4]; ecLeuRS, SPR with AMP
  fold more potent binding than compound 1: 30-40 fold
ecLeuRS [4]; ecLeuRS, in the presence of AMP
  SPR tR (residence time): 104 ± 5 min
ecLeuRS [4]; ecLeuRS
  Kd/IC50: 8.5
ecLeuRS [4]; read-out: SPR koff
  koff: 0.00016 ± 1e-05 s⁻¹
ecLeuRS [4]; read-out: SPR tR (residence time), ecLeuRS, in the presence of AMP
  residence time: 100 min
mtLeuRS [13]
  Kd: 10.4 nM
[14]
  IC50: > 300000 nM
